Laboratory results taken from US12584903B2, “Cellular-based method for determining the potency of defibrotide” (GENTIUM S.R.L., priority 2014, dated 2026).

How the values were obtained:
SK-HEP-1 cells [1] = test: Cell protection assay: viability of SK-HEP-1 cells incubated with fludarabine, CCK-8 assay, 4-parameter logistic potency analysis; details: fludarabine 10 μg/ml, 72 hours
Experimental: The human liver sinusoidal endothelial cell line SK-HEP-1 was obtained from the American Type Culture Collection (ATCC) and cultured in complete EMEM medium in a humidified cell incubator containing 5% CO2 at 37° C. using gelatin-coated tissue culture flasks. The cells were sub-cultured by trypsin mediated detachment every 2-3 days following the instructions provided by the ATCC. Cells were serially transferred into culture flasks when the culture was 80-90% confluent and used for the protection assay between passages +3 to +10. That is, 3 to 10 passages beyond the characterised passage number of the cells received from the ATCC.
A suspension of SK-HEP-1 for use in the cell protection assay was prepared and counted. […] Cells were counted using a Neubauer counting chamber in the presence of trypan blue to assess the percent viability of the cultures.
Fifty μl of the cell suspensions, or medium alone for blanks, prepared at the concentrations described above was placed in wells of a poly-D-lysine coated 96-well microtiter plate. […] Following addition of the solution to the wells, the plates were returned to the incubator and cell viability was assessed after 24, 48 or 72 hr. […]
After the specified period of incubation, cell viability in each well was measured using the CCK-8 cell counting kit (Sigma Aldrich, Milan, Italy) following the manufacturer's instructions. […]

HMEC-1 cells = test: Cell protection assay: viability of HMEC-1 cells incubated with fludarabine, MTT assay; format: cell-based, human; details: 72 hours
Experimental: The MTT assay is based on the cleavage of tetrazolium salts by mitochondrial dehydrogenase in viable cells leading to the production of an insoluble formazan dye. MTT dye, 10 μl of a 2 mg/ml solution in D-PBS, was added to each well and then the plates were incubated for 3 hours. Plates were then centrifuged and each well aspirated. The dye was solubilised with 200 μl of a mixture DMSO/Ethanol (1:1) and absorbance in the wells was read at 570-590 nm on a microplate reader. A blank well containing only media and cytotoxic drug (fludarabine or doxorubicin) was also run as a control in all experiments.
HMEC-1 cells were cultivated according to the above mentioned procedure. A cell density of 500,000 cells/ml was used for the assay. […] Defibrotide was added to the microplate well at a concentration of 100, 10 or 1 μg/ml. Four replicates of each condition were performed. The viability of the HMEC cells was assessed after 72 hours with the MTT assay described above.
HMEC-1 cells were cultivated according to the above mentioned procedure. A cell density of about 500,000 cells/ml was used for the experiment. The cytotoxic agent was fludarabine at a concentration of 50 μg/ml. Synthetic oligonucleotides (Adenine-Cytosine (AC) of about 16 kDa or Adenine-Cytosine-Guanine-Thymine (ACGT) of about 17 kDa) or defibrotide were added to each well at varying concentrations. Specifically, the AC oligonucleotides were added to each well at a concentration of 1, 10, 100 or […], whereas the ACGT oligonucleotides were added to each well at a concentration of 12.5, 25 or 50 μg/ml. […] Each treatment condition was performed in triplicate. The viability was assessed with the MTT assay after 24, 48 and 72 hours.

SK-HEP-1 cells [2] = test: Cell protection assay: viability of SK-HEP-1 cells incubated with doxorubicin, CCK-8 assay; format: cell-based, human; details: doxorubicin 0.1 μg/ml, defibrotide 50 μg/ml or greater, 72 hours
Experimental: The cytotoxic agent was doxorubicin at a concentration of 0.1 μg/ml. Defibrotide was added to the microplate well at a concentration of 100, 50, 20, 10, 5 or 1 μg/ml. Three replicates of each condition were performed. The viability was assessed after 72 hours with the CCK-8 assay kit as described above. […] (FIG. 2).

## N[C@@H](CCC(=O)N[C@@H](CS)C(=O)NCC(=O)O)C(=O)O [glutathione, Glutathione]
SK-HEP-1 cells [1]; ACGT or glutathione 1.25-80 μg/ml, tPA 10-320 IU/ml
  protection from fludarabine-induced cytotoxicity (in words): No protection

## defibrotide
HMEC-1 cells; fludarabine 10 μg/ml, defibrotide 100 μg/ml
  protection effect against fludarabine-induced cytotoxicity: more than 50%
HMEC-1 cells; fludarabine 10 μg/ml, defibrotide 100, 10 or 1 μg/ml
  protection from fludarabine-induced cytotoxicity (in words): protected the cells from fludarabine-induced cytotoxicity in a dose-dependent manner
HMEC-1 cells; fludarabine 50 μg/ml, AC 1-500 μg/ml, ACGT 12.5-50 μg/ml, defibrotide 5-100 μg/ml
  protection from fludarabine-induced cytotoxicity (in words): dose-dependent protection
SK-HEP-1 cells [1]; defibrotide 40 μg/ml or greater
  cells surviving: greater than 80%
SK-HEP-1 cells [2]
  protection from doxorubicin-induced cytotoxicity (in words): significantly protected
